Results as given in publication PMC4527935 (Nature structural & molecular biology, 2015).

Columns and labels:
[1] = molecular target: T1, yeast AAC carrier 3 (yAAC3), mitochondrial ADP/ATP carrier (Saccharomyces cerevisiae, UniProt P18238); test: ITC; type: binding
[2] = molecular target: T1, yeast AAC carrier 3 (yAAC3), mitochondrial ADP/ATP carrier; test: NMR chemical shift titration; type: binding

T1 sequence (P18238 whole entry): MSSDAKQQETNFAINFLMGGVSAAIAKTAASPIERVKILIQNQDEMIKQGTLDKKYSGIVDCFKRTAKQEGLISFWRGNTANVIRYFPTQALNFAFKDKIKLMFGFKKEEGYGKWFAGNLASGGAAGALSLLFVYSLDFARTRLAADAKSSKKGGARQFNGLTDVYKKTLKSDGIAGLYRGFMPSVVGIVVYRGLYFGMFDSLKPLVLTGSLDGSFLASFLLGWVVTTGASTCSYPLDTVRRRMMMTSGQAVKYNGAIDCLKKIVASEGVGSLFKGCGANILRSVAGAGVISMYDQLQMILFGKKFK

Row | Kd [2] [µM] | SMILES | Kd [1] [µM]
1 |  | C=C1[C@@H]2CC[C@H]3[C@]4(C)C[C@H](O[C@@H]5O[C@H](CO)[C@@H](OS(=O)(=O)O)[C@H](OS(=O)(=O)O)[C@H]5OC(=O)CC(C)C)CC(C(=O)O)(C(=O)O)[C@H]4CC[C@]3(C2)[C@H]1O [CATR, carboxyatractyloside] | 14.9 ± 9.6
2 | ~500 | Nc1ncnc2c1ncn2[C@@H]1O[C@H](COP(=O)(O)OP(=O)(O)O)[C@@H](O)[C@H]1O [ADP] | 
